Results as given in ChEMBL document CHEMBL1909046, “DrugMatrix in vitro pharmacology data”.

Target: Insulin receptor (Rattus norvegicus, UniProt P15127); further: in other assays of this panel Not Active means under 50% inhibition at 10 µM
Experiment: not given
Type: cell membranes, Wistar, Liver, Membrane
Conditions: not given

Chain of Insulin receptor (P15127 27-759 limits assumed): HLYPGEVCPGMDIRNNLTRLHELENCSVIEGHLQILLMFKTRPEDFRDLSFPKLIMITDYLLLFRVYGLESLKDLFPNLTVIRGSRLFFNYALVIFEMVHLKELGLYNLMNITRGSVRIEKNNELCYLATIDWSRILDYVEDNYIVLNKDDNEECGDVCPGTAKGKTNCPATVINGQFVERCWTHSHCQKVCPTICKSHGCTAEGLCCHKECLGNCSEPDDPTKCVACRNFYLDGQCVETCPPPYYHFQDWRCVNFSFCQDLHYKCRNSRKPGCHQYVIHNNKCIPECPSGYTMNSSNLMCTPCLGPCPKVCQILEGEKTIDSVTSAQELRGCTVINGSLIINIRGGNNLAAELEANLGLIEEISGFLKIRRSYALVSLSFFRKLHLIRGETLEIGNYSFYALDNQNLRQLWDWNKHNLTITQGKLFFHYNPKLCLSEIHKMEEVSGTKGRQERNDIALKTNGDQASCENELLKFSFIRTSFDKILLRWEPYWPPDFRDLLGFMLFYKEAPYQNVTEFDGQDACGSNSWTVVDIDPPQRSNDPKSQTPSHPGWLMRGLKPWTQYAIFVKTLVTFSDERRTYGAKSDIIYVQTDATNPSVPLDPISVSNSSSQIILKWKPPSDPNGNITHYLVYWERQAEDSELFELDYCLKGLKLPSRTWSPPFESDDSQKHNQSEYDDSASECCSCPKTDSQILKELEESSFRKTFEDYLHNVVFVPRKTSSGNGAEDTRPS
Chain of Insulin receptor (P15127 764-1383 limits assumed): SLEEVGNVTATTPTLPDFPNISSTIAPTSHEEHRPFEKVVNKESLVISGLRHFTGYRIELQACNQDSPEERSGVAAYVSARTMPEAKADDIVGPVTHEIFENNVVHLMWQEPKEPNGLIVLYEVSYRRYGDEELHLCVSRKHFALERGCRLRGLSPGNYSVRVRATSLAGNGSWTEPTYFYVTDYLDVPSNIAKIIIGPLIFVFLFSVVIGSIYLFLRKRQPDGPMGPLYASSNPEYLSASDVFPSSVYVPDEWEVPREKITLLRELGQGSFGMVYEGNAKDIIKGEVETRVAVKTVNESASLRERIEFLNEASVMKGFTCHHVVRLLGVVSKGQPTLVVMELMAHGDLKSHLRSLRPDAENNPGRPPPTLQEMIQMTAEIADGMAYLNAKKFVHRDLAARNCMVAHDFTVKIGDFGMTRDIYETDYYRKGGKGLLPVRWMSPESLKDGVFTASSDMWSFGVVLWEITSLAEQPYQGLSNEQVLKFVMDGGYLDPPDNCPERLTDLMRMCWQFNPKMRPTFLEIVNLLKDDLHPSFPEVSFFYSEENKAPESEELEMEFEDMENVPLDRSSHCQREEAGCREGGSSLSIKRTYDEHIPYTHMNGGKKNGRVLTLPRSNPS

| SMILES | IC50 |
| --- | --- |
| CCC1(c2ccccc2)C(=O)NCNC1=O [PRIMIDONE] | Not Active |
| CC1(C)S[C@@H]2[C@H](NC(=O)[C@H](NC(=O)N3CCNC3=O)c3ccccc3)C(=O)N2[C@H]1C(=O)O [AZLOCILLIN] | Not Active |
| CCOC(=O)OC(C)OC1=C(C(=O)Nc2ccccn2)N(C)S(=O)(=O)c2ccccc21 (stereo unspecified) [AMPIROXICAM] | Not Active |

Target: T1, Neutrophil elastase (Homo sapiens, UniProt P08246);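 further: inhibition of neutrophil elastase enzyme activity, measured with a p-nitroanilide-linked peptide substrate; in other assays of this panel Not Active means under 50% inhibition at 10 µM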
T1 sequence (P08246 whole entry): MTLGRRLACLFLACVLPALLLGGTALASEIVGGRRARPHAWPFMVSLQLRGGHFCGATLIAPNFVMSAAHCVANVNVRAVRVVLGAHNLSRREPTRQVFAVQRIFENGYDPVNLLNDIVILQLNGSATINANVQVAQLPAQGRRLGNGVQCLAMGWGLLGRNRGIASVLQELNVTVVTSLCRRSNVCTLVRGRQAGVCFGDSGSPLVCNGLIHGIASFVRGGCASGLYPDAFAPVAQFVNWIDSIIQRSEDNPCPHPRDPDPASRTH
Experiment: not given
Type: tissue-based
Conditions: not given

| SMILES | IC50 |
| --- | --- |
| CCC1(c2ccccc2)C(=O)NCNC1=O [PRIMIDONE] | Not Active |
| CC1(C)S[C@@H]2[C@H](NC(=O)[C@H](NC(=O)N3CCNC3=O)c3ccccc3)C(=O)N2[C@H]1C(=O)O [AZLOCILLIN] | Not Active |
| CCOC(=O)OC(C)OC1=C(C(=O)Nc2ccccn2)N(C)S(=O)(=O)c2ccccc21 (stereo unspecified) [AMPIROXICAM] | Not Active |

Target: Estrogen receptor beta (Homo sapiens, UniProt Q92731); further: in other assays of this panel Not Active means under 50% inhibition at 10 µM
Experiment: not given
Conditions: sf9

Chain of Estrogen receptor beta (Q92731 whole entry): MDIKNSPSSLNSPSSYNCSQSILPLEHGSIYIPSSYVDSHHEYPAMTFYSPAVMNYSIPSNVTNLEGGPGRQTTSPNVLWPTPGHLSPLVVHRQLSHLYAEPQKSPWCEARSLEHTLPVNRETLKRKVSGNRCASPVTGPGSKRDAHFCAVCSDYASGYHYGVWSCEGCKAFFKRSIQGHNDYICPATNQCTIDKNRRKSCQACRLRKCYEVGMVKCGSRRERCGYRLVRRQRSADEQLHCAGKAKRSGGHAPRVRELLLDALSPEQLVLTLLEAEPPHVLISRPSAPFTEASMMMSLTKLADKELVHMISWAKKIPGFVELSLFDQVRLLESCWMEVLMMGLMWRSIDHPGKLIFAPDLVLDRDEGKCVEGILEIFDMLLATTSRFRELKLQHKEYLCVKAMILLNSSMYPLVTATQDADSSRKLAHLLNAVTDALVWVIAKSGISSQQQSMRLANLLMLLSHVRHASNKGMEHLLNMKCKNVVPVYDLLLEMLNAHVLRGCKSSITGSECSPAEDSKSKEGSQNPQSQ

| SMILES | IC50 |
| --- | --- |
| CCC1(c2ccccc2)C(=O)NCNC1=O [PRIMIDONE] | Not Active |
| CC1(C)S[C@@H]2[C@H](NC(=O)[C@H](NC(=O)N3CCNC3=O)c3ccccc3)C(=O)N2[C@H]1C(=O)O [AZLOCILLIN] | Not Active |
| CCOC(=O)OC(C)OC1=C(C(=O)Nc2ccccn2)N(C)S(=O)(=O)c2ccccc21 (stereo unspecified) [AMPIROXICAM] | Not Active |

Test system: not listed separately
Experiment: DRUGMATRIX: Phorbol Ester radioligand binding (ligand: [3H] PDBu)
Type: cell membranes, Mus musculus, ICR, Brain, Membrane
Conditions: Not Active = under 50% inhibition at 10 µM

| SMILES | IC50 | Ki |
| --- | --- | --- |
| CCC1(c2ccccc2)C(=O)NCNC1=O [PRIMIDONE] | Not Active | Not Active |
| CC1(C)S[C@@H]2[C@H](NC(=O)[C@H](NC(=O)N3CCNC3=O)c3ccccc3)C(=O)N2[C@H]1C(=O)O [AZLOCILLIN] | Not Active | Not Active |
| CCOC(=O)OC(C)OC1=C(C(=O)Nc2ccccn2)N(C)S(=O)(=O)c2ccccc21 (stereo unspecified) [AMPIROXICAM] | Not Active | Not Active |

Test system: not listed separately
Experiment: DRUGMATRIX: ATPase, Na+/K+ enzyme inhibition (substrate: ATP)
Type: tissue-based, Sus scrofa, Heart
Conditions: Not Active = under 50% inhibition at 10 µM

| SMILES | IC50 | Ki |
| --- | --- | --- |
| CCC1(c2ccccc2)C(=O)NCNC1=O [PRIMIDONE] | Not Active | Not Active |
| CC1(C)S[C@@H]2[C@H](NC(=O)[C@H](NC(=O)N3CCNC3=O)c3ccccc3)C(=O)N2[C@H]1C(=O)O [AZLOCILLIN] | Not Active | Not Active |
| CCOC(=O)OC(C)OC1=C(C(=O)Nc2ccccn2)N(C)S(=O)(=O)c2ccccc21 (stereo unspecified) [AMPIROXICAM] | Not Active | Not Active |

Target: T2, C-C chemokine receptor type 4 (Homo sapiens, UniProt P51679); further: in other assays of this panel Not Active means under 50% inhibition at 10 µM
T2 sequence (P51679 whole entry): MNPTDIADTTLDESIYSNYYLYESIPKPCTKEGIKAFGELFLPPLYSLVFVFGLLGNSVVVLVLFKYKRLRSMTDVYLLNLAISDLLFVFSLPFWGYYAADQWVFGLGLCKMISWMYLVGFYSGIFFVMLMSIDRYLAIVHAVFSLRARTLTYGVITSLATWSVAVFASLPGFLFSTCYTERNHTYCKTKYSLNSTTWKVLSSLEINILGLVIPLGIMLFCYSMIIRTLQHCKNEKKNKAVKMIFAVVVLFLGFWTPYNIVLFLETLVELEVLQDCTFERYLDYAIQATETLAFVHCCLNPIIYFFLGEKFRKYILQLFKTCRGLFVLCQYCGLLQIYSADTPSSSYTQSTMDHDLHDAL
Experiment: not given
Type: cell membranes, Membrane
Conditions: chem-1

| SMILES | IC50 |
| --- | --- |
| CCC1(c2ccccc2)C(=O)NCNC1=O [PRIMIDONE] | Not Active |
| CC1(C)S[C@@H]2[C@H](NC(=O)[C@H](NC(=O)N3CCNC3=O)c3ccccc3)C(=O)N2[C@H]1C(=O)O [AZLOCILLIN] | Not Active |
| CCOC(=O)OC(C)OC1=C(C(=O)Nc2ccccn2)N(C)S(=O)(=O)c2ccccc21 (stereo unspecified) [AMPIROXICAM] | Not Active |

Target: T3, Nitric oxide synthase, inducible (Mus musculus, UniProt P29477)
T3 sequence (P29477 whole entry): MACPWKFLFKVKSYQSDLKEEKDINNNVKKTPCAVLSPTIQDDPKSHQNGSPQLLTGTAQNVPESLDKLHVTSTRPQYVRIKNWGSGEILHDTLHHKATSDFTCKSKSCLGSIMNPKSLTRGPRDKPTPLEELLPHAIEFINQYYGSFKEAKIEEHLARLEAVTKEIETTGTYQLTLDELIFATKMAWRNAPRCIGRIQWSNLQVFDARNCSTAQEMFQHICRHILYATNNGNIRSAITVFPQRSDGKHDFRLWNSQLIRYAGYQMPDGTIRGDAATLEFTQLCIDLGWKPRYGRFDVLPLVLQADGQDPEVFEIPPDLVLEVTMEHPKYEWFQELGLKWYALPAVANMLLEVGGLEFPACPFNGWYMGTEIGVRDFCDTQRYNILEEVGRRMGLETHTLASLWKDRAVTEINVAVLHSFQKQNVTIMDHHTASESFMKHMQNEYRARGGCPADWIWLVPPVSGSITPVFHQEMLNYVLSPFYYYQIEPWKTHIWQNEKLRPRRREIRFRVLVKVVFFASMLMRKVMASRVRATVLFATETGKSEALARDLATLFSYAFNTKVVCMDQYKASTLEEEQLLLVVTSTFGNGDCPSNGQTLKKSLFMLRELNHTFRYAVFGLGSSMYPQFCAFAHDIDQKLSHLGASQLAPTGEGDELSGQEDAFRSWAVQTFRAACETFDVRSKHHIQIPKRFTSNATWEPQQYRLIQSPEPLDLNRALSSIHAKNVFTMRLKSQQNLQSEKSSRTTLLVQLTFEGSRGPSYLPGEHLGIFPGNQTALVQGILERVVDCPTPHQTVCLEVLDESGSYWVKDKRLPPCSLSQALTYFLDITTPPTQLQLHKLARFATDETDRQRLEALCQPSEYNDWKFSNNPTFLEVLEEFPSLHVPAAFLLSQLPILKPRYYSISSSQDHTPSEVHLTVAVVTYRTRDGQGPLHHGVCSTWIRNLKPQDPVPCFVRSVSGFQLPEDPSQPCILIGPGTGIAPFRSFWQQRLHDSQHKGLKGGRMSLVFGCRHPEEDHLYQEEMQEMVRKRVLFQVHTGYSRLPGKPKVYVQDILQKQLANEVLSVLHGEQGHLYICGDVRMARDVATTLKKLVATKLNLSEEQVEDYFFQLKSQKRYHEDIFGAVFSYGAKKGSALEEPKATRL
Experiment: not given
Set-up: species or system Escherichia coli
Conditions: not given

| SMILES | IC50 |
| --- | --- |
| CCC1(c2ccccc2)C(=O)NCNC1=O [PRIMIDONE] | Not Active |
| CC1(C)S[C@@H]2[C@H](NC(=O)[C@H](NC(=O)N3CCNC3=O)c3ccccc3)C(=O)N2[C@H]1C(=O)O [AZLOCILLIN] | Not Active |
| CCOC(=O)OC(C)OC1=C(C(=O)Nc2ccccn2)N(C)S(=O)(=O)c2ccccc21 (stereo unspecified) [AMPIROXICAM] | Not Active |

Target: T4, Neuropeptide Y receptor type 1 (Homo sapiens, UniProt P25929); further: in other assays of this panel Not Active means under 50% inhibition at 10 µM
T4 sequence (P25929 whole entry): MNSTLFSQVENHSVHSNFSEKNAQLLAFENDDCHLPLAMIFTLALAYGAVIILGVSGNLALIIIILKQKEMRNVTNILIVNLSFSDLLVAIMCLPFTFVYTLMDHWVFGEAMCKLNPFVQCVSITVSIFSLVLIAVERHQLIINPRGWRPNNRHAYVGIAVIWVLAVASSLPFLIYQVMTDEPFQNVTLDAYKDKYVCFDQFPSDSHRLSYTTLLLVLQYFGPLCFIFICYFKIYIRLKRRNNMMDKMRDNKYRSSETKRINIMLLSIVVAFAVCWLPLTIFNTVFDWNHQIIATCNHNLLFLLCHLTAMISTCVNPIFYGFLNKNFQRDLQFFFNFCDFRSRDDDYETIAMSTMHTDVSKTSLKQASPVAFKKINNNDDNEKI
Experiment: not given
Type: cell membranes, Membrane
Conditions: sk-n-mc

| SMILES | IC50 |
| --- | --- |
| CCC1(c2ccccc2)C(=O)NCNC1=O [PRIMIDONE] | Not Active |
| CC1(C)S[C@@H]2[C@H](NC(=O)[C@H](NC(=O)N3CCNC3=O)c3ccccc3)C(=O)N2[C@H]1C(=O)O [AZLOCILLIN] | Not Active |
| CCOC(=O)OC(C)OC1=C(C(=O)Nc2ccccn2)N(C)S(=O)(=O)c2ccccc21 (stereo unspecified) [AMPIROXICAM] | Not Active |

Test system: not listed separately
Experiment: DRUGMATRIX: Glutamate, AMPA radioligand binding (ligand: [3H] AMPA)
Type: cell membranes, Rattus norvegicus, Wistar, Cerebral cortex, Membrane
Conditions: Not Active = under 50% inhibition at 10 µM

| SMILES | IC50 | Ki |
| --- | --- | --- |
| CCC1(c2ccccc2)C(=O)NCNC1=O [PRIMIDONE] | Not Active | Not Active |
| CC1(C)S[C@@H]2[C@H](NC(=O)[C@H](NC(=O)N3CCNC3=O)c3ccccc3)C(=O)N2[C@H]1C(=O)O [AZLOCILLIN] | Not Active | Not Active |
| CCOC(=O)OC(C)OC1=C(C(=O)Nc2ccccn2)N(C)S(=O)(=O)c2ccccc21 (stereo unspecified) [AMPIROXICAM] | Not Active | Not Active |

Test system: not listed separately
Experiment: DRUGMATRIX: Glutamate, Kainate radioligand binding (ligand: [3H] Kainic acid)
Type: cell membranes, Rattus norvegicus, Wistar, Brain, Membrane
Conditions: Not Active = under 50% inhibition at 10 µM

| SMILES | IC50 | Ki |
| --- | --- | --- |
| CCC1(c2ccccc2)C(=O)NCNC1=O [PRIMIDONE] | Not Active | Not Active |
| CC1(C)S[C@@H]2[C@H](NC(=O)[C@H](NC(=O)N3CCNC3=O)c3ccccc3)C(=O)N2[C@H]1C(=O)O [AZLOCILLIN] | Not Active | Not Active |
| CCOC(=O)OC(C)OC1=C(C(=O)Nc2ccccn2)N(C)S(=O)(=O)c2ccccc21 (stereo unspecified) [AMPIROXICAM] | Not Active | Not Active |

Target: C-C chemokine receptor type 2 (Homo sapiens, UniProt P41597); further: in other assays of this panel Not Active means under 50% inhibition at 10 µM
Experiment: not given
Type: cell membranes, CHO-K1, Membrane
Conditions: cho-k1

Chain of C-C chemokine receptor type 2 (P41597 whole entry): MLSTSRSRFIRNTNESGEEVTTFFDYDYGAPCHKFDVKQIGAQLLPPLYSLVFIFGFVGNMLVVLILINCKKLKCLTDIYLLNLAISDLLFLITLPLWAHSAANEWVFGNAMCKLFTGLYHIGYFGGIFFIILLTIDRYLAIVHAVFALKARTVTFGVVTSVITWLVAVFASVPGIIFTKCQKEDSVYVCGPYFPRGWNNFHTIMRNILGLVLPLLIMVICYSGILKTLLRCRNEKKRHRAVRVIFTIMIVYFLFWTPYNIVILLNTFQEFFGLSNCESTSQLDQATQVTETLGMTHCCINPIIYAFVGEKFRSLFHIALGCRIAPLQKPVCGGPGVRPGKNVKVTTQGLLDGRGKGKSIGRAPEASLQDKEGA

| SMILES | IC50 |
| --- | --- |
| CCC1(c2ccccc2)C(=O)NCNC1=O [PRIMIDONE] | Not Active |
| CC1(C)S[C@@H]2[C@H](NC(=O)[C@H](NC(=O)N3CCNC3=O)c3ccccc3)C(=O)N2[C@H]1C(=O)O [AZLOCILLIN] | Not Active |
| CCOC(=O)OC(C)OC1=C(C(=O)Nc2ccccn2)N(C)S(=O)(=O)c2ccccc21 (stereo unspecified) [AMPIROXICAM] | Not Active |

Target: cGMP-specific 3',5'-cyclic phosphodiesterase (Homo sapiens, UniProt O76074)
Experiment: DRUGMATRIX: Phosphodiesterase PDE5 enzyme inhibition (substrate: [3H]cGMP + cGMP)
Type: tissue-based, Platelet
Conditions: platelet; Not Active = under 50% inhibition at 10 µM

| SMILES | IC50 |
| --- | --- |
| CCC1(c2ccccc2)C(=O)NCNC1=O [PRIMIDONE] | Not Active |
| CC1(C)S[C@@H]2[C@H](NC(=O)[C@H](NC(=O)N3CCNC3=O)c3ccccc3)C(=O)N2[C@H]1C(=O)O [AZLOCILLIN] | Not Active |
| CCOC(=O)OC(C)OC1=C(C(=O)Nc2ccccn2)N(C)S(=O)(=O)c2ccccc21 (stereo unspecified) [AMPIROXICAM] | Not Active |

Target: T5, Leukotriene C4 synthase (Cavia porcellus, UniProt A6XA80)
T5 sequence (A6XA80 whole entry): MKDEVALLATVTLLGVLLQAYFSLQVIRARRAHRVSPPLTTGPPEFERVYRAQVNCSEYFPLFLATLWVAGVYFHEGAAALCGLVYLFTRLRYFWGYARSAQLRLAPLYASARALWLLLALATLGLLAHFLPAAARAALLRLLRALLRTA
Experiment: biochemical
Type: tissue-based, Lung
Conditions: not given

| SMILES | IC50 |
| --- | --- |
| CCC1(c2ccccc2)C(=O)NCNC1=O [PRIMIDONE] | Not Active |
| CC1(C)S[C@@H]2[C@H](NC(=O)[C@H](NC(=O)N3CCNC3=O)c3ccccc3)C(=O)N2[C@H]1C(=O)O [AZLOCILLIN] | Not Active |
| CCOC(=O)OC(C)OC1=C(C(=O)Nc2ccccn2)N(C)S(=O)(=O)c2ccccc21 (stereo unspecified) [AMPIROXICAM] | Not Active |
